{"source": "patent US6458760B1", "about": "“Method for treating tissue damaged from ischemia” (Henry Ford Health System, priority 1998, dated 2002)", "key": {"Cathepsin L": {"molecular_target": "Cathepsin L (Homo sapiens, UniProt P07711)", "sequence (P07711 114-333, species assumed)": "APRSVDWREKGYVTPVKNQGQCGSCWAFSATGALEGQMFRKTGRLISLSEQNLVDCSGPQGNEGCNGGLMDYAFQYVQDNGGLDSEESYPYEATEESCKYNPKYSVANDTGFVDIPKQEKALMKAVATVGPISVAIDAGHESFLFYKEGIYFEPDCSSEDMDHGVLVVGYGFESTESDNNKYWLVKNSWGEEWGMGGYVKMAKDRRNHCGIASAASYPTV", "assay": "Cathepsin L inactivation rate, fluorimetric progress curves", "format": "biochemical", "details": "second order inactivation rate constant corrected for substrate; substrate Z-Phe-Arg-AMC; pH 5.4, 30° C.", "experimental": "(§1) (“Tian, et al.”) the contents of which are incorporated by reference. More specifically, the value of kobs is given by the slope of a plot of ln [P]∞−[p]t versus t (time). The apparent second-order rate contact for inactivation, k2app was calculated as kobs/[I]. The inactivation-rates (kobs) in the presence of substrate and for different inhibitor concentrations for calpain, cathepsin B and cathepsin L are determined according to the method of Tian, et al. However, k2app is corrected for the presence of substrate (s) to give the second order rate constant k^12app, calculated as k^12app=k2app (1+[s]/Km).\nCathepsins B and L were preactivated with […] DTT in 50 mM sodium acetate buffer, pH 5.4, 1 mM EDTA for 2 h at 4° C. and assayed in the same buffer with 0.01% Brij [poly(oxyethylene) glycol dodecyl ether]. 5 μM (final concentration) CBZ-Phe-Arg-AMC was used as substrate for both for cathepsins B and L. The inhibitors (0.1-1 μM) and substrate were added to the reaction mixture to incubate for 5 min in a cuvette thermostated at 30° C. Then, approximately 0.4 nM and 0.1 nM final concentration of cathepsin B and cathepsin L, respectively, were used to initiate the reaction. […] The progress curves were analyzed over at least 3 half lives to calculate the rate constants of inactivation in accordance with the procedure described by Crawford, C. Mason, R. W., Wilkström, P., and Shaw, E. in an article entitled “The design of peptidyldiazomethane inhibitors to distinguish between the cysteine proteinases calpain II, cathepsin L and cathepsin B.”, Biochem. J. 1988, 253, 751-758, the contents of which are incorporated by reference. The rates of inactivation of various substrates are tabulated hereinbelow."}, "[1]": {"tested_on": "Wistar rats with MCA occlusion", "assay": "Stroke model, 3 h MCA occlusion, infarct volume at 7 days", "format": "in vivo, rat", "experimental": "After anesthesia had been induced in the rat, a catheter was inserted into the femoral vein and tunneled subcutaneously in the posterior neck region. Body temperature was maintained at a constant temperature of 37° C. during surgical procedures. The animals underwent 2 hours of MCA occlusion, and then reperfusion when the suture was withdrawn, and immediately thereafter, the drug was infused for four hours. The animals were killed after a 7-day reperfusion, and the brains were formalin fixed and sliced 6-μm thick into seven coronal sections A-G, and mounted on coated slides. After staining with hematoxylin and eosin, the stroke volume was measured using an image analysis program. The stroke area and the contralateral hemispheric area were calculated by tracing the areas on the computer screen, and the volumes were determined by multiplying the appropriate area by the section interval thickness. The stroke volume is expressed as the percentage of lesion size to the volume of contralateral hemisphere. […]\nCP-1 dissolved in 1% DMSO and isotonic saline was given intravenously to Wistar rats (15 μl/min) at a concentration of 50 μM for four hours beginning at the end of three hours of MCA occlusion, in accordance with the protocol described hereinabove. […] All animals which survived 7 days were sacrificed and the infarct volume was measured 7 days after the MCA occlusion. […]"}, "[2]": {"tested_on": "Wistar rats with MCA occlusion", "assay": "Neurological function on four point scale (Bederson) after 3 h MCA occlusion", "format": "in vivo, rat", "experimental": "CP-1 dissolved in 1% DMSO and isotonic saline was given intravenously to Wistar rats (15 μl/min) at a concentration of 50 μM for four hours beginning at the end of three hours of MCA occlusion, in accordance with the protocol described hereinabove. Control animals underwent a similar protocol, but they had injected therein a 1% DMSO/Saline as the vehicle for four hours beginning at the end of a three hour MCA occlusion. All animals which survived 7 days were sacrificed and the infarct volume was measured 7 days after the MCA occlusion.\nOn the first day and on the seventh day after occlusion, the neurological function was determined on a four point scale (0, 1, 2, 3,) as described in an article by Bederson, et al. in Stroke, 1986, 17:472-476, the contents of which are incorporated by reference.\nThe rats were placed on large sheet of soft, plastic coated paper (such as counter protection paper) which they could potentially firmly grip with their claws. The tail of the rats were held by hand, and gentle lateral pressure was applied behind the rat's shoulder until it was noticed that the forelimbs slid several inches. This maneuver was repeated several times in each direction. […] (These rats were severely dysfunctional).\nThese values are the mean score ±SEM of the results from treatment on control animals. P≦0.05 according to the Mann Whitney Rank Sum test."}, "Cathepsin B": {"molecular_target": "Cathepsin B (Homo sapiens, UniProt P07858)", "assay": "Cathepsin B inactivation rate, fluorimetric progress curves", "format": "biochemical", "details": "second order inactivation rate constant corrected for substrate; pH 5.4, 30° C.", "experimental": "as §1\nCathepsins B and L were preactivated with […] DTT in 50 mM sodium acetate buffer, pH 5.4, 1 mM EDTA for 2 h at 4° C. and assayed in the same buffer with 0.01% Brij [poly(oxyethylene) glycol dodecyl ether]. […] The inhibitors (0.1-1 μM) and substrate were added to the reaction mixture to incubate for 5 min in a cuvette thermostated at 30° C. Then, approximately 0.4 nM and 0.1 nM final concentration of cathepsin B and cathepsin L, respectively, were used to initiate the reaction. […] The progress curves were analyzed over at least 3 half lives to calculate the rate constants of inactivation in accordance with the procedure described by Crawford, C. Mason, R. W., Wilkström, P., and Shaw, E. in an article entitled “The design of peptidyldiazomethane inhibitors to distinguish between the cysteine proteinases calpain II, cathepsin L and cathepsin B.”, Biochem. J. 1988, 253, 751-758, the contents of which are incorporated by reference. The rates of inactivation of various substrates are tabulated hereinbelow."}}, "note": "Residues, ends and D or L forms follow the SMILES beside them. *: point of attachment. Cbz = O=C(OCc1ccccc1)*; CHN2 = [N-]=[N+]=C*; Bn = c1ccc(C*)cc1"}
{"smiles": "[N-]=[N+]=CC(=O)C(COCc1ccccc1)NC(=O)C(Cc1ccccc1)NC(=O)OCc1ccccc1", "note": "(stereo not drawn) [CP-1, benzyloxycarbonyl-Phe-Ser(OBz)-CHN2] (Cbz-Phe-Ser(Bn)-CHN2; configuration not given here)", "values": [{"measurement": "Cathepsin L k′2app", "setting": "Cathepsin L", "value": "1,000,000 M^−1S^−1"}, {"measurement": "% Hemisphere Infact Volume (% ± SEM)", "setting": "[1]; 50 μM i.v. for 4 h beginning at end of 3 h MCA occlusion, day 7, control 41.1 ± 2.4, P>0.05", "value": "39.9 ± 4.1", "unit": "%"}, {"measurement": "reducing infarct size", "setting": "[1]; 50 μM, 3 hour MCA occlusion", "value": "not effective"}, {"measurement": "Functional Score Day 7", "setting": "[2]; 50 μM i.v. 4 h after 3 h MCA occlusion, scale 0-3, mean ± SEM, control 1.9 ± 0.3", "value": "0.9 ± 0.2"}, {"measurement": "Functional Score Day 1", "setting": "[2]; 50 μM i.v. 4 h after 3 h MCA occlusion, scale 0-3, mean ± SEM, control 3 ± 0", "value": "2.1 ± 0.6"}, {"measurement": "reducing the neurological deficits due to the occlusion", "setting": "[2]; 50 μM, 3 hour MCA occlusion", "value": "effective in reducing the neurological deficits"}, {"measurement": "Cathepsin B k′2app", "setting": "Cathepsin B", "value": "8,800 M^−1S^−1"}]}
